The values that follow come from US20090208597A1, “HEAT PROCESSED VEGETABILIC FIBER PREPARATION AND ITS USE AS INHIBITOR OF THE EFFECTS OF CARCINOGENIC SUBSTANCES IN HUMANS OR ANIMALS” (ESSENTYS AB, priority 2006, published 2009).

Series [1] deals with small intestine of male BALB mice. Kind of series: Povex in food of mice treated with acrylamide, histomorphometry of small intestine (Example 4). It counts as in vivo. As for the experimental part:
The aim of this study was to investigate if regular and heat Povex can protect small intestine against acrylamide toxic influence. The point was to establish what histological changes can acrylamide cause to small intestine tissue and if Povex can reverse or decrease these possible changes.
Three months experiment was performed on males BALB mince. Two doses of acrylamide (2 mg/day/kg b.w., and 0.1 mg/day/kg b.w.) in drinking water and two types of Povex heated (Treated) and normal (Untreated) added to food were provided for animals.
Histology and histomorphometry of small intestine was performed. The examined parameters were: fractal dimension of small intestine, mitosis inside crypts and apoptosis count per mm^2 of tissue.
Seventy-five 9-weeks old male and seventy-five 7 to 9 weeks old female BALB mice (Laboratory), weighing about 20 g, were used in whole experiment. Mice were housed ten per box of the same sex. This part of experiment and analysis obtained from is made on twenty eight male BALB mice.
Three types of formulated mixtures were manufactured: • Labodiet MLF control. The receipt of this food is based on the energy needs according to the Polish norm for feeding domestic animals. • Labodiet MLF 2% n Povex. The receipt of this food is based one the control one. The food was enriched with 2% of Povex. • Labodiet MLF 2% praz Povex. The receipt of this food is based one the control one. The food was enriched with 2% of heated Povex till 160° C.
Before the beginning of the experiment, we measured water consumption in 24 hours of 5 groups of mice. The average of daily-consumption was 10 mL/day/kg b.w. This consumption was used to calculate the concentration of the two doses of acrylamide: The high dose was calculated from 2 mg/day/kg b.w. and the low dose from 0.1 mg/day/kg b.w. The first dilution of acrylamide in tap water was made directly with the powder and 3 L of both concentrations were prepared. […] The volume left in the bottle was measured and put in a table to follow the consumption of acrylamide through the water. […]

Another series relates to BALB mice. The experiment in a line: Potato fiber supplemented diet in acryl amide exposed mice, histomorphology of intestine and liver (Example 1). The conditions noted are these: acryl amide added to the drinking water; 90 days. It counts as in vivo. As to the method: The main aim of these studies was to see if a potato fiber supplemented diet had any effect on acryl amide induced cancer development in mice.
Seventy five 9-weeks old male and seventy five 7 to 9 weeks old female BALB mice (Laboratory), weighing about 20 g, were used. Mice were housed ten per box of the same sex. Solid food and water were allowed in sufficient quantities. The animals were kept in an animal house where the humidity and temperature were controlled and where a 12 h light period was kept. The experiment has been reviewed and approved by Lund University ethic committee, application M140-03.
2/ Labodiet MLF 2% and potato fiber preparation (Povex®). The receipt of this food/feed is based on the control food/feed. The food/feed was enriched with 2% of Povex®.
3/ Labodiet MLF 2% heated potato fiber preparation (Povex®). […]
It was found suitable to use the commercial (Sigma-Aldrich, St Louis, Mo.) acryl amide for electrophoresis in the form of powder (minimum 99%). […] Before the beginning of the experiment, the water consumption during 24 h of 5 groups of mice was measured. […] This consumption was used to calculate the concentration of the two doses of acryl amide: The high dose was calculated from 2 mg/day/kg b.w. and the low dose from 0.1 mg/day/kg b.w. […] The volume left in the bottle was measured and listed in a table in order to follow the consumption of acryl amide through the water. […]

For `C=CC(N)=O` [Acryl amide, acryl amide], the “number of mitosis inside small intestine crypt” value in series [1] (small and large dose of AA with standard food vs control group) is “significant decrease”. The “number of apoptosis/mm^2 in small intestine tissue” value in series [1] (standard food + large or low dose of AA) was “elevated number of apoptotic cells”. Moreover, the “fractal dimension of small intestine mucosa” value in series [1] (standard food and low dose of AA (0.1 mg) vs control group) is “difference between control group and animals getting standard food and low dose of AA”. Also, in the series with BALB mice, the “histomorphological parameters of the intestine and liver” value is reported as “affected a majority of the measured histomorphological parameters”.
